The record followed here is patent publication US9206129B2, “Agent for treatment of eye diseases” (Daito Chemix Corporation, priority 2010, dated 2015).

Where a name gives a salt, the structure may show the parent alone.

Assay [1] relates to DBA/2J mice. Briefly: Intraocular pressure in DBA/2J mice (TonoLab tonometer). It counts as in vivo, mouse. The following applies: 50 mg/kg/day orally. Here is the method:
As a model of secondary angle-closure glaucoma, the DBA/2J mice (Anderson, M. G. et al; BMC Genetics (2001)) were employed. The mice were administered orally with 50 mg/kg/day of the compound of Synthetic Example 32 or 53 (Compound 32 or 53, respectively) daily after two months of age. The tomographs of retinae (n=22 to 32 eyes) were obtained in the 6, 7, 8, 9 and 10-month-old mice with the optical coherence tomography (OCT) (Multiline OCT, Heidelberg Engineering) (FIGS. 1 and 2: The OCT images of the retinae of the 8-month-old mice, FIG. 3: The evaluation of the optic nerve cupping in the 7 to 10-month-old mice). The mice in the control group were administered orally with the physiological saline. The eyeballs were enucleated at 10 months of age, and retinae were observed after hematoxylin-eosin (HE) staining (FIG. 4: The micrographs of retinae of the […] mice after HE staining). The thickness of the inner retinal layers and the nerve fiber layers was determined from the OCT images (FIG. 5: The thickness of the nerve fiber layers of the 7-month-old mice; FIG. 6: The thickness of the inner retinal layers of the 8-month-old mice; FIG. 7: The time course of the thickness of the inner retinal layers). The thickness of the inner retinal layer is a sum of the thickness of the nerve fiber and ganglion neuron layer and the inner plexiform layer.
Besides, the intraocular pressure was measured with TonoLab (M. E. Technica) tonometer under general anesthesia monthly from 2 months of age. The mean intraocular pressure at 4, 5, 6, 7 and 8 months of age was 13.6, 14.0, 11.3, 16.3 and 12.8 mmHg in the control group administered with the physiological saline, 13.0, 15.6, 12.0, 12.3 and 14.4 mmHg in the group administered with Compound 32, 14.6, 16.0, 12.8, 13.0 and 14.4 mmHg in the group administered with Compound 53.

In assay [2] the test system is rd10 mice. Briefly: rd10 mice, model of retinitis pigmentosa: OCT, electroretinogram, HE-stained retinae. The class given is in vivo, mouse. Conditions: 33-day-old rd10 mice, 50 mg/kg/day intraperitoneally. Here is the method: As a model of retinitis pigmentosa, the rd10 mice (B6.CXB1-Pde6b^rd10/J (purchased from Jackson Laboratory (Bar Harbor, Me.), Chang B. et al; Vision Res (2007)) were employed. In the mouse model, the rod photoreceptors are completely disappeared within 2 months after birth. The mice were administered intraperitoneally with 50 mg/kg/day of the compound of Synthetic Example 32 or 53 (Compound 32 or 53, respectively) daily from 7 days of age. The tomographs of the retinae were obtained in the 21, 25, 29 and 33-day-old mice with the optical coherence tomography (OCT) (FIGS. 15 and 17: The OCT images of the mice administered with Compound 32 at 25 and 29 days of age; FIGS. 19 and 21: The OCT images of the mice administered with Compound 53 at 25 and 29 days of age). The 21-, 25-, 29- and 33-day-old mice were subjected to dark adaptation and given 3.0 cd/s/m^2 of photic stimulations via a LED-type corneal-contact electrode (Mayo) by LS-W (Mayo). The electroretinogram (ERG) was recorded and analyzed with PowerLab 2/25 (AD Instruments, New South Wales, Australia) to measure the b-wave amplitudes (N=27-37 eyes) (FIGS. 16, 18, 24: The ERG of the 25-, 29- and 33-day-old mice administered with Compound 32; FIGS. 20, 22, 26: The ERG of the 25-, 29- and 33-day-old mice administered with Compound 53). The mice in the control group were administered orally with the physiological saline. […]

Assay [3] has as its target Mouse VCP (Mus musculus (Mouse), UniProt Q01853). Kind of assay: VCP ATPase inhibitory activity. The class given is biochemical. The following applies: ATPase activity of purified VCP, 100 μM [γ-32P]ATP, 37° C., 10 minutes. Here is the method:
Mouse VCP cDNA (the amino acid sequence is completely identical among mouse, rat and human) is added with a DNA sequence corresponding to a histidine tag at the amino-terminal, subcloned into a baculovirus vector pVL1392 (BD Bioscience), and expressed in Sf-9 insect cells. The protein is purified with a nickel column. After the purification the concentration of the protein is adjusted to […] and the protein is stored in a solution containing 50 mM TrisCl pH 8.0, 5 mM EDTA, 10% glycerol, and 15 mM DTT at 4° C. […] The enzyme reaction is stopped with addition of 200 μL of an ice-cold solution containing 7% TCA and 1 mM K2HPO4. […] The reaction tube is centrifuged for 5 minutes at 20,000 g to separate the aqueous layer and the organic layer, 200 μL of the organic layer is taken, and the beta ray radiated from the liberated phosphate is quantified with liquid scintillation counter. By measuring the ATPase activity in the presence of the test substance at various concentrations, ATPase inhibitory activity of the test substance is measured. […]
The ATPase activity was determined as follows. […]
By measuring the ATPase activity in the presence of the test substance at various concentrations, ATPase inhibitory activity of the test substance was measured. […]

Sequence of Mouse VCP (Q01853 whole entry): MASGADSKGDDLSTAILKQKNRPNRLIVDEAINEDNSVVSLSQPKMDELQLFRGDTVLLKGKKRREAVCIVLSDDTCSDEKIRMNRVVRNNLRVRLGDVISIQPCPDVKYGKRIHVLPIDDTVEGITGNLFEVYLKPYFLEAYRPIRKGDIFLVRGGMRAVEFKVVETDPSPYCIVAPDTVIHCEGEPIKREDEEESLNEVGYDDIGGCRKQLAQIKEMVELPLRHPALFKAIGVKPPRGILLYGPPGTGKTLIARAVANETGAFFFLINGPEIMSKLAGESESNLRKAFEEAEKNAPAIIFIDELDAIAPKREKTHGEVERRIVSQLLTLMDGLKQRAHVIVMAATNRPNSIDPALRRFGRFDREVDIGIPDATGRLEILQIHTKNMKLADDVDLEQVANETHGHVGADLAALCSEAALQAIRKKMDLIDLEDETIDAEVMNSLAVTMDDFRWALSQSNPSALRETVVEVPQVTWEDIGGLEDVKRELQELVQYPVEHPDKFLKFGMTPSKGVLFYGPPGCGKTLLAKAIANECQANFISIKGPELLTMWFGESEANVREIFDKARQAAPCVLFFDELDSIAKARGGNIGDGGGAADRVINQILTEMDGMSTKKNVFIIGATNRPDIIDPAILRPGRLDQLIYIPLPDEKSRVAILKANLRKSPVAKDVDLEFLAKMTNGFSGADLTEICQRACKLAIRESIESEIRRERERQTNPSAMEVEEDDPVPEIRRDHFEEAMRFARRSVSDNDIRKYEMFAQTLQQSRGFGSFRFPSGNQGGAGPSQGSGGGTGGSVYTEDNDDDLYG

Regarding `Cc1cc(F)ccc1-c1ccc(/N=N/c2cc(S(=O)(=O)[O-])c3ccccc3c2N)cn1.[Na+]` [Example 32, 4-amino-3-[6-(4-fluoro-2-methylphenyl)pyridine-3-ylazo]naphthalene-1-sulfonic acid sodium salt], the mean intraocular pressure in assay [1] (4 months of age) is listed as 13.0 mmHg; in assay [1] (5 months of age), 15.6 mmHg; in assay [1] (6 months of age) it was 12.0 mmHg; in assay [1] (7 months of age), 12.3 mmHg; in assay [1] (8 months of age) it was 14.4 mmHg. Moreover, in assay [2], the “layers of the photoreceptor cells in the retinal section” value lay in the range of 4 to 5 layers.
The term IC50 denotes the midpoint of a concentration-inhibition curve. `Nc1c(/N=N/c2ccc(-c3ccccc3OCCCC(=O)O)nc2)cc(S(=O)(=O)O)c2ccccc12` [Example 43, 4-{2-[5-(1-amino-4-sulfonaphthalene-2-ylazo)pyridine-2-yl]phenoxy}butyric acid disodium salt] gave an IC50 in assay [3] of 378 nM.
In the case of `CCCCOc1c(C=O)cc(C)cc1-c1ccc(/N=N/c2cc(S(=O)(=O)[O-])c3ccccc3c2N)cn1.[Na+]` [Example 53, 4-amino-3-[6-(3-formyl-2-butoxy-5-methylphenyl)pyridine-3-ylazo]naphthalene-1-sulfonic acid sodium salt], the mean intraocular pressure worked out at 14.6 mmHg in assay [1] (4 months of age); 16.0 mmHg in assay [1] (5 months of age); 12.8 mmHg in assay [1] (6 months of age); 13.0 mmHg in assay [1] (7 months of age); 14.4 mmHg in assay [1] (8 months of age). In assay [2], the “layers of the photoreceptor cells in the retinal section” value is listed as 4 to 5 layers.
